Experimental findings from US10035814B2, “Guanine analogs as telomerase substrates and telomere length affectors” (Geron Corporation, priority 2011, dated 2018) are described below.

Where “and” joins values, the source holds several entries; their conditions need not be identical. Equal values may be shown once.

Experiment [1] addresses T1, telomerase (Homo sapiens (Human), UniProt O14746). As to the kind of experiment: Flash plate (Flashplate) telomerase assay. Type of experiment: biochemical. The note with it: affinity purified telomerase extract, 20 μM dGTP; read-out: Flashplate IC 50. Here is the method:
Determining IC50 for PMPGpp, (R)-PMPGpp and (S)-PMPGpp. Telomerase activity was determined using the “flash-plate” assay with concentrations of PMPGpp ranging from 0.05 μM to 50 μM.
Compound was pre-incubated with affinity purified telomerase extract, 100 nM primer [5′ biotin-d(AATCCGTCGAGCAGAGTT)] (SEQ ID NO: 4), 120 μM dTTP, 20 μM dGTP, […], in a buffer containing 50 mM Tris-Acetate (pH 8.2), 1 mM MgCl2, 1 mM DTT, 0.5 mM EGTA and 150 mM KOAc, 5.4 nM ^33P-labeled [d([…])] (SEQ ID NO: 5 (6×10^9 cpm/nmol) in a final reaction volume of 30 μl. Incubations were done for 90 min at 37° C. Following stoppage of the reaction with EDTA (10 mM), the reaction products were captured in a streptavidin coated 96 well FlashPlate. After a 2 hr capture period for the primer, the plates were washed five times (2×SSC, 0.1% SDS, 10 mM EDTA) and counted.
Compound was pre-incubated with affinity purified telomerase extract, 100 nM primer [5′ biotin-d(AATCCGTCGAGCAGAGTT)] (SEQ ID NO: 4), 120 μM dTTP, 20 μM dGTP, 10 μM dATP, in a buffer containing 50 mM Tris-Acetate (pH 8.2), 1 mM MgCl2, 1 mM DTT, 0.5 mM EGTA and 150 mM KOAc, 5.4 nM ^33P-labeled [d([…])] […]

Experiment [2] concerns the target T1, telomerase. As to the kind of experiment: Primer extension assay for telomerase activity. Format: biochemical. The note with it: for IC50: purified telomerase, dGTP 50 μM. The method, then: Purified human telomerase was incubated with d(TTAGGG)3 (SEQ ID NO: 1) and deoxy-nucleoside triphosphates for 90 minutes at 37° C. All reactions were done in the presence of 200 dTTP and 10 μM dATP (50,000 cpm/pmol a-^33P-dATP). Activity was determined by incubating affinity purified telomerase extract with 1 μM primer [d(TTAGGG)3] (SEQ ID NO: 1), 200 μM dTTP, 50 μM dGTP, 10 μM dATP, 10 μCi [α-^33P]dATP (2000-4000 Ci/mmol) in a buffer containing 50 mM (N-2-hydroxyethyl piperazine-N′-3 propanesulfonic acid)-NaOH pH 8.5, 1 mM MgCl2, 1 mM DTT, 5% glycerol, 0.5 mM EGTA and 100 mM KOAc in a final reaction volume of 40 μl. Primer extension products were analyzed on a 15% polyacrylamide gel containing 7 M urea. A characteristic telomerase ladder has multiple bands. If a compound is not a substrate then (TTAGGG)3TTA (21 nt) (SEQ ID NO: 2). If a compound is a chain terminator then (TTAGGG)3TTAG* (22 nt) (SEQ ID NO: 3).
Purified human telomerase was incubated with d(TTAGGG)3 (SEQ ID NO: 1) and deoxy-nucleoside triphosphates for 90 minutes at 37° C. All reactions were done in the presence of 200 dTTP and 10 μM dATP (50,000 cpm/pmol a-^33P-dATP). Activity was determined by incubating affinity purified telomerase extract with […] primer [d(TTAGGG)3] (SEQ ID NO: 1), […] [α-^33P]dATP (2000-4000 Ci/mmol) in a buffer containing 50 mM (N-2-hydroxyethyl piperazine-N′-3 propanesulfonic acid)-NaOH pH 8.5, 1 mM MgCl2, 1 mM DTT, 5% glycerol, 0.5 mM EGTA and 100 mM KOAc in a final reaction volume of 40 μl. Primer extension products were analyzed on a 15% polyacrylamide gel containing 7 M urea. A characteristic telomerase ladder has multiple bands. If a compound is not a substrate then (TTAGGG)3TTA (21 nt) (SEQ ID NO: 2). If a compound is a chain terminator then (TTAGGG)3TTAG* (22 nt) (SEQ ID NO: 3).

T1 sequence (O14746 whole entry): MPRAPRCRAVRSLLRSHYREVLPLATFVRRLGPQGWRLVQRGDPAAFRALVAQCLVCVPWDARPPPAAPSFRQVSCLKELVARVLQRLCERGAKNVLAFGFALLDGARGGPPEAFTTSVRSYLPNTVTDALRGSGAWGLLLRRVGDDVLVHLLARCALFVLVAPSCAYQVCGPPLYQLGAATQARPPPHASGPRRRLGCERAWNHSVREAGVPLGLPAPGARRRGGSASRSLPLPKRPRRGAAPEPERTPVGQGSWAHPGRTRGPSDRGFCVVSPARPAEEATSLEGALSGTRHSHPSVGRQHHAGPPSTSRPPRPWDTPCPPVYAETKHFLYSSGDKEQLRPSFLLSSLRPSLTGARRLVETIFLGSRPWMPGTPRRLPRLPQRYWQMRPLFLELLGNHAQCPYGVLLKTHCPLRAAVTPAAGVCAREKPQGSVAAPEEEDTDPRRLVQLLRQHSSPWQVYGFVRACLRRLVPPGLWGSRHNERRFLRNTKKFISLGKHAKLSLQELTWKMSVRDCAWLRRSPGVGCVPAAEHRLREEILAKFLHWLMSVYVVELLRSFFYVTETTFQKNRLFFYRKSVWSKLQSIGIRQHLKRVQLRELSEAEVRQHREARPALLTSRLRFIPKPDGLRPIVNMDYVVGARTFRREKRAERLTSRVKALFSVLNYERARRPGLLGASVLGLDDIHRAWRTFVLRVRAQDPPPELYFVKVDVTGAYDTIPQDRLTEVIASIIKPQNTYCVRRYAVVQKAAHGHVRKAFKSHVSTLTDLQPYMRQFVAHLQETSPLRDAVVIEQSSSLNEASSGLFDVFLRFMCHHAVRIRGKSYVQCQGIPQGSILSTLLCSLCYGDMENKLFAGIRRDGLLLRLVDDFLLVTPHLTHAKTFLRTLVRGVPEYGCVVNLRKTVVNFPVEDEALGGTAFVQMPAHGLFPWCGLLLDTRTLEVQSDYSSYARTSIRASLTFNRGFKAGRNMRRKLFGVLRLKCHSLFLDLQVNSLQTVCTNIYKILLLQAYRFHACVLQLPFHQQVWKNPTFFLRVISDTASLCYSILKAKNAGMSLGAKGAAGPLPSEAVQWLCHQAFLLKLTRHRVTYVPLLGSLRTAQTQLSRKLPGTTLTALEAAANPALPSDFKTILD

Take `CC(Cn1cnc2c(=O)[nH]c(N)nc21)OCP(=O)(O)OP(=O)(O)OP(=O)(O)O` (single isomer, unassigned) [ID#142692]: the IC50 on telomerase [1] was 1000 nM; against telomerase [2], ~1000 nM and 1000 nM. In addition, the “Primer Ext. Assay Notes: telomerase substrate / chain terminator” value on telomerase [2] (listed as PMPGpp) was “acts as a chain terminator”; on telomerase [2] (listed as R-PMPGpp), “resulting in chain termination”.
As for `CC(Cn1cnc2c(=O)[nH]c(N)nc21)OCP(=O)(O)OP(=O)(O)OP(=O)(O)O` (single isomer, unassigned) [ID#142751, PMPG free acid, S form], the IC50 is 14100 nM on telomerase [1] and 13500 nM on telomerase [2].
